# pIC50: −log10 of the molar value. Active and inactive are the calls of the source. No cut-off for these calls is given here.
# Tests used:
# T-24 [1] = experiment: Cell cycle arrest in T24 cells by accumulation at G2 phase at 5 uM after 12 hrs; assay type: functional, Homo sapiens
# HT-29 [2] = experiment: Cell cycle arrest in HT29 cells by accumulation at G2 phase at 8.9 uM after 12 hrs; assay type: functional, Homo sapiens
# T-24 [3] = experiment: Effect on apoptosis in T24 cells assessed as increase in caspase 3 activation after 14 hrs relative to control by flow cytometry; assay type: functional, cell-based; conditions: Homo sapiens
# HT-29 [4] = experiment: Growth inhibition of human HT29 cells by neutral red assay; assay type: functional, cell-based
# MDA-MB-231 [5] = experiment: Increase in cell death of MDA-MB-231 cells; assay type: functional, cell-based; conditions: Homo sapiens, TDE = time-dependent effect
# HT-29 [6] = experiment: Cell cycle arrest in HT29 cells by accumulation at subG1 phase at 8.9 uM after 10 hrs; assay type: functional, Homo sapiens
# T-24 [7] = experiment: Effect on apoptosis in T24 cells assessed as increase in caspase 3 activation after 48 hrs relative to control by flow cytometry; assay type: functional, cell-based; conditions: Homo sapiens
# T-24 [8] = experiment: Cell cycle arrest in T24 cells by accumulation at G1 phase at 5 uM after 8 hrs; assay type: functional, Homo sapiens
# HT-29 [9] = experiment: Effect on apoptosis in HT29 cells assessed as increase in caspase 3 activation after 48 hrs relative to control by flow cytometry; assay type: functional, cell-based; conditions: Homo sapiens
# T-24 [10] = experiment: Growth inhibition of human T24 cells by neutral red assay; assay type: functional, cell-based
# HT-29 [11] = experiment: Cell cycle arrest in HT29 cells by accumulation at subG1 phase after 24 hrs; assay type: functional, Homo sapiens
# HT-29 [12] = experiment: Cell cycle arrest in HT29 cells by accumulation at G1 phase at 8.9 uM after 8 hrs; assay type: functional, Homo sapiens
# HT-29 [13] = experiment: Increase in cell death of HT29 cells; assay type: functional, cell-based; conditions: Homo sapiens, TDE = time-dependent effect
# HT-29 [14] = experiment: Cell cycle arrest in HT29 cells by accumulation at G1 phase after 24 hrs; assay type: functional, Homo sapiens
# HT-29 [15] = experiment: Cell cycle arrest in HT29 cells by accumulation at subG1 phase at 8.9 uM after 12 hrs; assay type: functional, Homo sapiens
# T-24 [16] = experiment: Cell cycle arrest in T24 cells by accumulation at G2/M phase after 24 hrs at 0.6 uM; assay type: functional, Homo sapiens
# HT-29 [17] = experiment: Effect on apoptosis in HT29 cells assessed as DNA fragmentation after 8 hrs; assay type: functional, cell-based; conditions: Homo sapiens
# T-24 [18] = experiment: Cell cycle arrest in T24 cells by accumulation at G1 phase after 24 hrs; assay type: functional, Homo sapiens
# T-24 [19] = experiment: Cell cycle arrest in T24 cells by accumulation at subG1 phase at 5 uM after 10 hrs; assay type: functional, Homo sapiens
# Caspase-3 (Homo sapiens) [20] = molecular target: T1, Caspase-3 (Homo sapiens) (UniProt P42574); experiment: Effect on MDA-MB-231 cell lysate caspase 3 activity after 14 hrs relative to control by substrate assay; assay type: cell-based
# T1 sequence (whole entry): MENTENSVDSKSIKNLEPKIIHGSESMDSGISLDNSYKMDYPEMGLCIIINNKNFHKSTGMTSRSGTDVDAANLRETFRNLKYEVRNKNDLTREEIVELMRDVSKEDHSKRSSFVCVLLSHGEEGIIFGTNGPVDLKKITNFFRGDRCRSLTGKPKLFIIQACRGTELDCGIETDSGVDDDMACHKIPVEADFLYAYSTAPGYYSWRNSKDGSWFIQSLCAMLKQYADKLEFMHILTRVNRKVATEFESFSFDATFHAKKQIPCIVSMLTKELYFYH
# [21] = Growth inhibition of human HTB26 cells by neutral red assay; assay type: functional, cell-based
# HT-29 [22] = experiment: Effect on apoptosis in HT29 cells assessed as increase in caspase 3 activation after 24 hrs relative to control by flow cytometry; assay type: functional, cell-based; conditions: Homo sapiens
# T-24 [23] = experiment: Cell cycle arrest in T24 cells by accumulation at G1 phase at 5 uM after 10 hrs; assay type: functional, Homo sapiens
# T-24 [24] = experiment: Cell cycle arrest in T24 cells by accumulation at G1 phase at 5 uM after 12 hrs; assay type: functional, Homo sapiens
# T-24 [25] = experiment: Cell cycle arrest in T24 cells by accumulation at subG1 phase after 24 hrs; assay type: functional, Homo sapiens
# HT-29 [26] = experiment: Cell cycle arrest in HT29 cells by accumulation at G2 phase at 8.9 uM after 8 hrs; assay type: functional, Homo sapiens
# T-24 [27] = experiment: Cell cycle arrest in T24 cells by accumulation at subG1 phase at 5 uM after 8 hrs; assay type: functional, Homo sapiens
# T-24 [28] = experiment: Cell cycle arrest in T24 cells by accumulation at subG1 phase at 5 uM after 12 hrs; assay type: functional, Homo sapiens
# T-24 [29] = experiment: Cell cycle arrest in T24 cells by accumulation at G2 phase at 5 uM after 8 hrs; assay type: functional, Homo sapiens
# T-24 [30] = experiment: Increase in cell death of T24 cells; assay type: functional, cell-based; conditions: Homo sapiens, TDE = time-dependent effect
# T-24 [31] = experiment: Cell cycle arrest in T24 cells by accumulation at S phase at 5 uM after 12 hrs; assay type: functional, Homo sapiens
# HT-29 [32] = experiment: Cell cycle arrest in HT29 cells by accumulation at G2 phase at 8.9 uM after 10 hrs; assay type: functional, Homo sapiens
# T-24 [33] = experiment: Effect on apoptosis in T24 cells assessed as increase in caspase 3 activation after 24 hrs relative to control by flow cytometry; assay type: functional, cell-based; conditions: Homo sapiens
# Caspase-3 (Homo sapiens) [34] = molecular target: T1, Caspase-3 (Homo sapiens); experiment: Effect on MDA-MB-231 cell lysate caspase 3 activity after 48 hrs relative to control by substrate assay; assay type: cell-based
# T-24 [35] = experiment: Cell cycle arrest in T24 cells by accumulation at G2 phase at 5 uM after 10 hrs; assay type: functional, Homo sapiens
# HT-29 [36] = experiment: Effect on apoptosis in HT29 cells assessed as increase in caspase 3 activation after 14 hrs relative to control by flow cytometry; assay type: functional, cell-based; conditions: Homo sapiens
# [37] = Cytotoxicity against CRL11233 cells; assay type: cell-based; conditions: human
# [38] = Cytotoxicity against CRL8799 cells; assay type: cell-based; conditions: human
# HT-29 [39] = experiment: Cell cycle arrest in HT29 cells by accumulation at G2/M phase after 24 hrs at 0.89 uM; assay type: functional, Homo sapiens
# HT-29 [40] = experiment: Cell cycle arrest in HT29 cells by accumulation at G1 phase at 8.9 uM after 10 hrs; assay type: functional, Homo sapiens
# HT-29 [41] = experiment: Cell cycle arrest in HT29 cells by accumulation at S phase after 24 hrs; assay type: functional, Homo sapiens
# T-24 [42] = experiment: Cell cycle arrest in T24 cells by accumulation at S phase at 5 uM after 10 hrs; assay type: functional, Homo sapiens
# HT-29 [43] = experiment: Cell cycle arrest in HT29 cells by accumulation at S phase at 8.9 uM after 8 hrs; assay type: functional, Homo sapiens
# HT-29 [44] = experiment: Cell cycle arrest in HT29 cells by accumulation at S phase at 8.9 uM after 12 hrs; assay type: functional, Homo sapiens
# HT-29 [45] = experiment: Cell cycle arrest in HT29 cells by accumulation at S phase at 8.9 uM after 10 hrs; assay type: functional, Homo sapiens
# HT-29 [46] = experiment: Cell cycle arrest in HT29 cells by accumulation at subG1 phase at 8.9 uM after 8 hrs; assay type: functional, Homo sapiens
# Caspase-3 (Homo sapiens) [47] = molecular target: T1, Caspase-3 (Homo sapiens); experiment: Effect on MDA-MB-231 cell lysate caspase 3 activity after 24 hrs relative to control by substrate assay; assay type: cell-based
# HT-29 [48] = experiment: Cell cycle arrest in HT29 cells by accumulation at G1 phase at 8.9 uM after 12 hrs; assay type: functional, Homo sapiens
# T-24 [49] = experiment: Cell cycle arrest in T24 cells by accumulation at S phase after 24 hrs; assay type: functional, Homo sapiens
# T-24 [50] = experiment: Cell cycle arrest in T24 cells by accumulation at S phase at 5 uM after 8 hrs; assay type: functional, Homo sapiens
# T-24 [51] = experiment: Effect on apoptosis in T24 cells assessed as DNA fragmentation after 8 hrs; assay type: functional, cell-based; conditions: Homo sapiens
# MDA-MB-231 [52] = experiment: Growth inhibition of human MDA-MB-231 cells by neutral red assay; assay type: functional, cell-based
compound,measurement,setting,value
COc1ccc(CNc2nc(NCc3ccc(OC)cc3)c3cccnc3n2)cc1,Activity,T-24 [1],36%
same,Activity,HT-29 [2],33%
same,Activity,T-24 [3],Active
same,pIC50,HT-29 [4],5.05
same,Activity,MDA-MB-231 [5],tde
same,Activity,HT-29 [6],25%
same,Activity,T-24 [7],Active
same,Activity,T-24 [8],36%
same,Activity,HT-29 [9],Active
same,pIC50,T-24 [10],5.30
same,Activity,HT-29 [11],7%
same,Activity,HT-29 [12],35%
same,Activity,HT-29 [13],tde
same,Activity,HT-29 [14],30%
same,Activity,HT-29 [15],34%
same,Activity,T-24 [16],38%
same,Activity,HT-29 [17],Active
same,Activity,T-24 [18],42%
same,Activity,T-24 [19],18%
same,Activity,Caspase-3 (Homo sapiens) [20],inactive
same,pIC50,[21],5.82
same,Activity,HT-29 [22],Active
same,Activity,T-24 [23],28%
same,Activity,T-24 [24],26%
same,Activity,T-24 [25],6%
same,Activity,HT-29 [26],38%
same,Activity,T-24 [27],7%
same,Activity,T-24 [28],28%
same,Activity,T-24 [29],43%
same,Activity,T-24 [30],tde
same,Activity,T-24 [31],10%
same,Activity,HT-29 [32],36%
same,Activity,T-24 [33],Active
same,Activity,Caspase-3 (Homo sapiens) [34],inactive
same,Activity,T-24 [35],40%
same,Activity,HT-29 [36],Active
same,Activity,[37],Non-toxic
same,Activity,[38],Non-toxic
same,Activity,HT-29 [39],52%
same,Activity,HT-29 [40],22%
same,Activity,HT-29 [41],11%
same,Activity,T-24 [42],13%
same,Activity,HT-29 [43],19%
same,Activity,HT-29 [44],17%
same,Activity,HT-29 [45],17%
same,Activity,HT-29 [46],8%
same,Activity,Caspase-3 (Homo sapiens) [47],inactive
same,Activity,HT-29 [48],17%
same,Activity,T-24 [49],13%
same,Activity,T-24 [50],13%
same,Activity,T-24 [51],Active
"CCC1(O)C(=O)OCc2c1cc1n(c2=O)Cc2cc3ccccc3nc2-1 (single isomer, unassigned) [CAMPTOTHECIN]",pIC50,HT-29 [4],7.85
same,pIC50,T-24 [10],8.22
same,pIC50,MDA-MB-231 [52],6.54
